Key:
[1] = tested on: anti-Savinase® antibody; test: ELISA of antibody binding capacity of immobilized peptides with sera raised against different proteins; design: species or system rabbits, rats, and mice; conditions: biotin-linked peptide on streptavidin plates, sera raised against Alcalase, Subtilisin Novo, Carezyme, Laccase, Natalase, SP722, Lipolase (FIG. 1)
Procedure: The antibody binding capacity of the two linear peptide sequences, RRFANDHTR (light gray bars) and RRFSNATRA (dark gray bars), were tested in an ELISA assay, by measuring optical density, OD. The sequences were tested for binding to antibodies in sera raised against different proteins. The different proteins are marked by capital letters A through H. A=Alcalase®, B=Savinase®, C=Subtilisin Novo®), D=Carezyme®) (cellulase), E=Laccase, F=Natalase® (amylase), G=SP722 (amylase), H=Lipolase® (lipase).
Specific IgG and IgE levels were determined using the ELISA specific for human, mouse or rat IgG or IgE. Differences between data sets were analysed by using appropriate statistical methods. The assays were performed as known to the expert.
The following sequences were synthezised, and immobilized on biotin, through a linker molecule:
The biotin-complex was immobilized in ELISA well plates, pre-coated with streptavidin. If phages were used, these were directly coated into the ELISA plate wells. ELISA was performed as described elsewhere, on sera from rabbits, rats, and mice raised against Alcalase®, Savinase®, and Subtilisin Novo® as well as a number of less relevant proteins.
In FIG. 1 the reactivity of the selected peptides in terms of antibody binding capacity is shown (ELISA assay). […]

[2] = tested on: specific antibodies; test: Phage display library screening for clones binding specific antibodies; conditions: random hexa-, nona- or dodeca peptide phage display library
Text: In a particular method, the identification of antibody binding sequences may be achieved by screening a display package library, particularly a phage display library. The principle behind phage display is that a heterologous DNA sequence can be inserted in the gene coding for a coat protein of the phage (WO 92/15679). The phage will make and display the hybrid protein on its surface where it can interact with specific target agents. Such target agent may be antigen-specific antibodies. It is therefore possible to select specific phages that display antibody-binding peptide sequences. […] Thus, by screening for antibody binding, one can isolate the peptide sequences that have sufficiently high affinity for the particular antibody used. The peptides of the hybrid proteins of the specific phages which bind protein-specific antibodies characterize epitopes that are recognized by the immune system.
From a phage display library expressing random hexa-, nona- or dodeca peptides as part of their membrane proteins, specific phage clones were isolated capable of binding specific antibodies. […] The amino acid sequence of the corresponding oligopeptide was deduced from the DNA sequence.

## R R F A N D H T R (RRFANDHTR)
[1]
  reactivity (antibody binding capacity, optical density, OD): Reactivity was observed with anti-Savinase® antibody only

## R R F S N A T R A (RRFSNATRA)
[1]
  reactivity (antibody binding capacity, optical density, OD): Reactivity was observed with anti-Savinase® antibody only

## VQVYGDTSA
[2]
  antibody binding of phage-displayed peptide: specific antibody binding peptide

— patent publication US20030119066A1, “Diagnostic kit for detecting immunogenic response and method of screening” (Novozymes A/S, priority 2001, published 2003)
